The subject of data set [1] is Rattus norvegicus. Put plainly: Antihyperlipidemic activity in streptozotocin-induced diabetic rat model assessed as serum triglyceride level at 10 mg/kg/day, po dosed via gavage for 14 days administered 3 days after streptozotocin challenge by UV-spectrophotometry. In kind it is functional.
The test system of data set [2] is Rattus norvegicus. Kind of data set: Antihyperlipidemic activity in streptozotocin-induced diabetic rat model assessed as serum cholesterol level at 10 mg/kg/day, po dosed via gavage for 14 days administered 3 days after streptozotocin challenge by UV-spectrophotometry. Format: functional.
Data set [3] concerns Rattus norvegicus. Put plainly: Antihyperlipidemic activity in high-cholesterol diet-induced hypercholesterolemia Swiss albino rat model assessed as reduction in serum cholesterol level at 10 mg/kg/day, po administered via gavage simultaneously with diet cocktail for 14 days by UV-spectrophotometry relative to untreated control. Conditions: 336 h. Format: functional.
Data set [4] concerns Rattus norvegicus. Kind of data set: Hypoglycemic activity in streptozotocin-induced diabetic rat model assessed as decrease in serum glucose level at 10 mg/kg/day, po dosed via gavage for 14 days administered 3 days after streptozotocin challenge by UV-spectrophotometry. In kind it is functional.
Data set [5] deals with Rattus norvegicus. Put plainly: Toxicity in healthy rat assessed as incidence of less responsive state at 2000 to 7000 mg/kg, po measured after 2 to 6 hrs. The arrangement: route oral. The settings on record: in vivo. In kind it is organism-based.
A short description of data set [6]: Toxicity in intra-gastrically dosed healthy rat administered as single dose. In kind it is organism-based. Conditions: in vivo, po.
Data set [7] has as its system Rattus norvegicus. Put plainly: Antihyperlipidemic activity in high-cholesterol diet-induced hypercholesterolemia Swiss albino rat model assessed as reduction in serum cholesterol level at 160 mg/kg/day, po administered via gavage simultaneously with diet cocktail for 14 days by UV-spectrophotometry relative to untreated control. Format: functional, organism-based.

In data set [8] the test system is Rattus norvegicus. Put plainly: Toxicity in healthy rat at 2000 to 7000 mg/kg, po measured after 24 hrs. Conditions: in vivo. Also on record: dose 2000-7000 mg/kg, route oral. In kind it is organism-based.
For data set [9], the system named is Rattus norvegicus. Put plainly: Toxicity in healthy rat assessed as incidence of mortality at 2000 to 7000 mg/kg, po measured after 24 hrs. The settings on record: in vivo. Format: organism-based. The arrangement: dose 2000-7000 mg/kg, route oral.

This passage reports Activity, inhibition in vivo and LD50 results from ChEMBL document CHEMBL1817550, “Synthesis and biological evaluation of some novel cyclic-imides as hypoglycaemic, anti-hyperlipidemic agents” (Eur J Med Chem, 2011).

Active and inactive are the calls of the source. No cut-off for these calls is given here.

What is called inhibition in vivo is the drop in the measured response relative to a control, in per cent. As a reminder, the LD50 is the dose at which mortality reaches 50%. A lower LD50 goes with greater toxicity.

On to `O=C1[C@@H]2[C@H](C(=O)N1c1ncccn1)C1(Cl)C(Cl)=C(Cl)C2(Cl)C1(Cl)Cl`, for which the Activity in data set [1] came out at 89.33 mg/dL; in data set [2], 162.3 mg/dL. The inhibition in vivo at 10 mg/kg/day in [3] came to 44%.

Consider `COc1ccc(Cl)cc1C(=O)NCCc1ccc(S(=O)(=O)NC(=O)NC2CCCCC2)cc1` [GLYBURIDE], for which the Activity in data set [1] was 87.6 mg/dL; in [2], 102.6 mg/dL. Also, the inhibition in vivo at 10 mg/kg/day was 11% in [3] and 52% in data set [4].

Regarding `O=C1c2c(Cl)c(Cl)c(Cl)c(Cl)c2C(=O)N1CCN1CCOCC1`, the Activity came to 100.3 mg/dL in [1] and 105.7 mg/dL in data set [2]. Further, the inhibition in vivo at 10 mg/kg/day turned out to be 46% in data set [3] and 10% in data set [4].

`O=C1c2cc(Cl)c(Cl)cc2C(=O)N1c1ncccn1`: the Activity was 70.66 mg/dL in data set [1]; “Toxic” in [5]; 96 mg/dL in data set [2]; “Non-toxic” in data set [8]; “Non-toxic” in [9]. The LD50 in data set [6] came out at 4240 mg/kg. In addition, the outcome in data set [7] was Active. For the same molecule, the inhibition in vivo at 10 mg/kg/day in data set [3] worked out at 58%; in [4], 32%.

Turning to `O=C1[C@@H]2[C@H](C(=O)N1c1ccncc1)C1(Cl)C(Cl)=C(Cl)C2(Cl)C1(Cl)Cl`, the Activity in data set [1] was 77 mg/dL; in data set [2] it was 169.3 mg/dL. Also, the inhibition in vivo at 10 mg/kg/day in data set [3] worked out at 41%; in data set [4] it was 27%.

As to `O=C1[C@@H]2[C@H](C(=O)N1c1ccccn1)C1(Cl)C(Cl)=C(Cl)C2(Cl)C1(Cl)Cl`, the results for the Activity in data set [1] and in [2] were 94.33 mg/dL and 129.6 mg/dL, respectively. The inhibition in vivo at 10 mg/kg/day in data set [3] is 33%; in [4], 25%.

In the case of `O=C1c2c(Cl)c(Cl)c(Cl)c(Cl)c2C(=O)N1c1ccccn1`, the figures for the Activity in [1] and in data set [2] were 120 mg/dL and 140.3 mg/dL, respectively. Also, the inhibition in vivo at 10 mg/kg/day in [3] came to 9%.

Take `O=C1c2c(Cl)c(Cl)c(Cl)c(Cl)c2C(=O)N1CCc1ccccn1`: the values for the Activity in data set [1] and in data set [2] were 80 mg/dL and 107.2 mg/dL, respectively. Also, the inhibition in vivo at 10 mg/kg/day in data set [3] amounted to 48%.

`O=C1[C@@H]2[C@H](C(=O)N1CCN1CCOCC1)C1(Cl)C(Cl)=C(Cl)C2(Cl)C1(Cl)Cl`: the results for the Activity in data set [1] and in data set [2] were 91.33 mg/dL and 152.3 mg/dL, respectively. Also, in data set [3], the inhibition in vivo at 10 mg/kg/day came out at 7%.

With `O=C1[C@@H]2[C@H](C(=O)N1CCc1ccccn1)C1(Cl)C(Cl)=C(Cl)C2(Cl)C1(Cl)Cl`, the Activity in data set [1] came to 71 mg/dL; in [2], 89.75 mg/dL. For the same molecule, the inhibition in vivo at 10 mg/kg/day in data set [3] was 53%; in data set [4], 7%.

`O=C1c2cc(Cl)c(Cl)cc2C(=O)N1c1ccccn1`: the values for the Activity in [1] and in data set [2] were 90.5 mg/dL and 126.2 mg/dL, respectively. The figures for the inhibition in vivo at 10 mg/kg/day in data set [3] and in data set [4] were 17% and 3%, respectively.

Take `O=C1c2cc(Cl)c(Cl)cc2C(=O)N1CCc1ccccn1`: the Activity in data set [1] was 71.6 mg/dL; in [5] it was “Toxic”; in [2] it was 92.33 mg/dL; in [8], “Non-toxic”; in data set [9] it was “Non-toxic”. For the same molecule, the LD50 in data set [6] turned out to be 5260 mg/kg. For the same molecule, the result in data set [7] was Active. Also, the values for the inhibition in vivo at 10 mg/kg/day in data set [3] and in data set [4] were 56% and 55%, respectively.

Consider `O=C1c2c(Br)c(Br)c(Br)c(Br)c2C(=O)N1c1ccccn1`, for which the Activity in data set [1] turned out to be 100.3 mg/dL; in data set [2], 150.3 mg/dL. Further, the inhibition in vivo at 10 mg/kg/day in data set [3] was 21%.

Turning to `O=C1c2cc(Cl)c(Cl)cc2C(=O)N1c1ccncc1`, the Activity was found to be 112 mg/dL in [1] and 146 mg/dL in data set [2]. Besides, the inhibition in vivo at 10 mg/kg/day in [3] is 19%.

Take `O=C1c2c(Br)c(Br)c(Br)c(Br)c2C(=O)N1c1ncccn1`: the Activity was found to be 110.6 mg/dL in data set [1] and 196 mg/dL in data set [2]. Moreover, the results for the inhibition in vivo at 10 mg/kg/day in data set [3] and in data set [4] were 19% and 28%, respectively.

Regarding `O=C1c2c(Cl)c(Cl)c(Cl)c(Cl)c2C(=O)N1c1ccncc1`, the Activity in data set [1] was 110.6 mg/dL; in [2], 129.5 mg/dL. Further, the inhibition in vivo at 10 mg/kg/day amounted to 44% in data set [3] and 3% in data set [4].

As for `O=C1c2c(Br)c(Br)c(Br)c(Br)c2C(=O)N1Cc1ccccn1`, the Activity in data set [1] was 82.66 mg/dL; in data set [5], “Toxic”; in data set [2], 92.33 mg/dL; in [8] it was “Non-toxic”; in [9], “Non-toxic”. Besides, in data set [6], the LD50 stood at 5010 mg/kg. Further, the outcome in data set [7] was Active. In addition, the inhibition in vivo at 10 mg/kg/day in [3] was determined as 54%; in data set [4], 35%.

On to `O=C1[C@@H]2[C@H](C(=O)N1Cc1ccccn1)C1(Cl)C(Cl)=C(Cl)C2(Cl)C1(Cl)Cl`, for which the Activity came to 123 mg/dL in data set [1] and 149.3 mg/dL in [2]. The inhibition in vivo at 10 mg/kg/day in data set [3] amounted to 4%.

Turning to `O=C1c2c(Br)c(Br)c(Br)c(Br)c2C(=O)N1CCN1CCOCC1`, the Activity in data set [1] is 80 mg/dL; in data set [2], 161.3 mg/dL. For the same molecule, the inhibition in vivo at 10 mg/kg/day in [3] stood at 7%; in [4], 20%.

As for `O=C1c2cc(Cl)c(Cl)cc2C(=O)N1CCN1CCOCC1`, the figures for the Activity in data set [1] and in [2] were 97.66 mg/dL and 88.66 mg/dL, respectively. The inhibition in vivo at 10 mg/kg/day in data set [3] stood at 42%; in data set [4], 30%.

On to `O=C1c2cc(Cl)c(Cl)cc2C(=O)N1Cc1ccccn1`, for which the Activity in data set [1] was 93 mg/dL; in [2], 155.3 mg/dL. Moreover, the inhibition in vivo at 10 mg/kg/day in data set [3] came out at 11%.

Regarding `O=C1c2c(Cl)c(Cl)c(Cl)c(Cl)c2C(=O)N1Cc1ccccn1`, the Activity in data set [1] was found to be 82.66 mg/dL; in [2], 105 mg/dL. Besides, the figures for the inhibition in vivo at 10 mg/kg/day in data set [3] and in [4] were 47% and 23%, respectively.

In the case of `O=C1c2c(Br)c(Br)c(Br)c(Br)c2C(=O)N1c1ccncc1`, the Activity was found to be 120 mg/dL in data set [1] and 171 mg/dL in [2]. Moreover, the inhibition in vivo at 10 mg/kg/day in data set [3] was determined as 13%.

Take `O=C1c2c(Br)c(Br)c(Br)c(Br)c2C(=O)N1CCc1ccccn1`: the values for the Activity in [1] and in data set [2] were 91.33 mg/dL and 164.6 mg/dL, respectively. Further, the inhibition in vivo at 10 mg/kg/day in data set [3] was found to be 20%; in data set [4], 18%.

`O=C1c2c(Cl)c(Cl)c(Cl)c(Cl)c2C(=O)N1c1ncccn1`: the values for the Activity in [1] and in [2] were 123 mg/dL and 117 mg/dL, respectively. The inhibition in vivo at 10 mg/kg/day in [3] was determined as 3%; in data set [4], 5%.
